Values after ≈ are worked out from the molar mass of the structure shown. Read-outs that look alike come from different tables or passages of the source.
Assays:
CHI Log D procedure = format: physicochemical; settings: for chromatographic logD: pH 7.4, CHI Log D; for CHI Log D: pH 7.4
[1] = target: T1, beta-catenin/TCF4 engagement (Homo sapiens, UniProt P35222); assay: Nano-BRET target engagement assay (B-cat-Halo & TCF4-Luc in HEK293 cells); format: cell-based; settings: for inhibition at 10 µM: HEK293, @ 10 uM, read-out: NanoBRET % inh @ 10 uM
T1 construct: expressed in transfected cells; host or cells: HEK293
T1 sequence (P35222 1-781): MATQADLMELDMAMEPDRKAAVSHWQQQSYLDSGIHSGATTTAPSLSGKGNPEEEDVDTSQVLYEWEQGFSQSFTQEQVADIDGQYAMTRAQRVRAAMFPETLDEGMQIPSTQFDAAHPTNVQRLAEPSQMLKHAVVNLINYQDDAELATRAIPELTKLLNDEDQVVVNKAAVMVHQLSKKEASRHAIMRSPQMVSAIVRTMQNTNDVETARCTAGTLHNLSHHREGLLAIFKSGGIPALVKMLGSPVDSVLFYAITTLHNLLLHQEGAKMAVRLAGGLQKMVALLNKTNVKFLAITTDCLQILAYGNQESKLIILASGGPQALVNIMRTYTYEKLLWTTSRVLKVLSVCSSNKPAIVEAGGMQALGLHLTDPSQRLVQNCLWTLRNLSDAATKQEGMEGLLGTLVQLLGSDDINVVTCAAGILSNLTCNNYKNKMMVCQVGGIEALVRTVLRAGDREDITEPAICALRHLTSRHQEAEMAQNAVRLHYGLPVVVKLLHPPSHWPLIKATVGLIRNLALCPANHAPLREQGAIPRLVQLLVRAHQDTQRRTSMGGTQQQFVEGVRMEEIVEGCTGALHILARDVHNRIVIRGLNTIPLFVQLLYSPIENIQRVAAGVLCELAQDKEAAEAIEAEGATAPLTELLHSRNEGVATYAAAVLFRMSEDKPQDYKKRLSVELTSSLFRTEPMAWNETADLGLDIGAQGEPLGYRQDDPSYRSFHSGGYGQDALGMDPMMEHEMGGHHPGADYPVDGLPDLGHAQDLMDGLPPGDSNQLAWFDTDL

Solubility in PBS = format: physicochemical
How it was run: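 The PBS solution was ultracentrifuged and the supernatant analyzed by HPLC. Its peak area was divided by that of a 50 μM peptide DMSO reference injection and multiplied by 50 uM to give solubility.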

[2] = target: T2, full-length beta-Catenin (Uniprot ID P35222) (Homo sapiens, UniProt P35222); assay: Fluorescence polarization IC50 (beta-catenin / 5FAM-TCF4 10-53 competition); format: binding
T2 construct: 10 nM full-length beta-Catenin (Uniprot ID P35222)
T2 sequence (P35222 1-781): T1 sequence (P35222 1-781)

[3] = absolute IC50, read-out: NanoBRET Abs IC50
[4] = fluorescence polarization, read-out: beta-Catenin FP IC50

chromatographic logD (CHI Log D procedure)	IC50 ([1]; read-out: NanoBRET Abs IC50) [µM]	IC50 ([1]; read-out: NanoBRET IC50) [µM]	Solubility (Solubility in PBS; Solubility (uM)) [µM]	IC50 ([2]; read-out: beta-Catenin FP IC50) [nM]	IC50 [1, 3] [µM]	IC50 [2, 4] [nM]	inhibition at 10 µM [1] [%]	Solubility (Solubility in PBS) [µM]	CHI Log D (CHI Log D procedure)	IC50 ([2]; read-out: FP EC50) [nM]	SMILES
1.79	25.1	18	15 (≈ 30.7 µg/mL)	8							CC(=O)N1CCC[C@]12CC=CCCCC1(CCCC=CCCCOC(=O)N3CC[C@@](C(=O)N[C@@H](Cc4ccsc4)C(=O)N[C@@H](Cc4csc5ccccc45)C(=O)N[C@@H](CCC(N)=O)C(=O)N[C@@H](CCCCN)C(N)=O)(C3)NC(=O)[C@H](CC(N)=O)NC(=O)[C@H](Cc3ccccc3)NC(=O)[C@H](C)NC(=O)[C@H](C)NC(=O)[C@H](CC(=O)O)NC(=O)[C@H](CC(=O)O)NC1=O)NC(=O)[C@H](CC(C)(C)C)NC(=O)[C@H](CC(=O)O)NC2=O (stereo partly drawn) [I-939, Ac-PL3-Asp-Npg-B5-Asp-Asp-Ala-Ala-Phe-Asn-PyrS2-3Thi-BztA-Gln-Lys-NH2]
2.3			14 (≈ 27 µg/mL)	5	23.8						CC(=O)N1CCC[C@]12CC=CCCCC1(CCCC=CCCCOC(=O)N3CC[C@@](C(=O)N[C@@H](Cc4ccsc4)C(=O)N[C@@H](Cc4csc5ccccc45)C(=O)N[C@@H](Cc4c[nH]cn4)C(N)=O)(C3)NC(=O)[C@H](CC(N)=O)NC(=O)[C@H](Cc3ccccc3)NC(=O)[C@H](C)NC(=O)[C@H](C)NC(=O)[C@H](CC(N)=O)NC(=O)[C@H](CC(=O)O)NC1=O)NC(=O)[C@H](CC(C)(C)C)NC(=O)[C@H](CC(=O)O)NC2=O (stereo partly drawn) [I-837, Ac-PL3-Asp-Npg-B5-Asp-Asn-Ala-Ala-Phe-Asn-PyrS2-3Thi-BztA-His-NH2]
1.82	26.4		49 (≈ 115 µg/mL)	10							COCCOCCOCCOCCOCCOCCC(=O)NCCCC[C@H](NC(=O)[C@H](CCC(N)=O)NC(=O)[C@H](Cc1csc2ccccc12)NC(=O)[C@H](Cc1ccsc1)NC(=O)[C@]12CCN(C1)C(=O)OCCCC=CCCCC1(CCCC=CC[C@]3(CCCN3C(C)=O)C(=O)N[C@@H](CC(=O)O)C(=O)N[C@@H](CC(C)(C)C)C(=O)N1)C(=O)N[C@@H](CC(=O)O)C(=O)N[C@@H](CC(=O)O)C(=O)N[C@@H](C)C(=O)N[C@@H](C)C(=O)N[C@@H](Cc1ccccc1)C(=O)N[C@@H](CC(N)=O)C(=O)N2)C(N)=O (stereo partly drawn) [I-913, Ac-PL3-Asp-Npg-B5-Asp-Asp-Ala-Ala-Phe-Asn-PyrS2-3Thi-BztA-Gln-[mPEG6]Lys-NH2]
2.41	12.3		14 (≈ 28.2 µg/mL)	34							CC(=O)N1CCC[C@]12CC=CCCCC1(CCCC=CCCCOC(=O)N3CC[C@@](C(=O)N[C@@H](Cc4ccccc4Cl)C(=O)N[C@@H](Cc4csc5ccccc45)C(=O)N[C@@H](CCC(N)=O)C(N)=O)(C3)NC(=O)[C@H](CC(C)C)NC(=O)[C@H](Cc3cccc(C(F)(F)F)c3)NC(=O)[C@H](C)NC(=O)[C@H](C)NC(=O)[C@H](CC(=O)O)NC(=O)[C@H](CC(=O)O)NC1=O)NC(=O)[C@H](CC(C)(C)C)NC(=O)[C@H](CC(=O)O)NC2=O (stereo partly drawn) [I-1122, Ac-PL3-Asp-Npg-B5-Asp-Asp-Ala-Ala-3F3MeF-Leu-PyrS2-2C1F-BztA-Gln-NH2]
2.42			15 (≈ 28.3 µg/mL)		9.7	15					CC[C@H](C)[C@@H]1NC(=O)[C@H](CC(=O)O)NC(=O)[C@]2(CC=CCCCC3(CCCC=CCCCCCC[C@@](C)(C(=O)N[C@@H](Cc4ccsc4)C(=O)N[C@@H](Cc4csc5ccccc45)C(=O)N[C@@H](Cc4c[nH]cn4)C(N)=O)NC(=O)[C@H](CC(N)=O)NC(=O)[C@H](Cc4ccccc4)NC(=O)[C@H](C)NC(=O)[C@H](C)NC(=O)[C@H](CCC(=O)O)NC(=O)[C@H](CC(=O)O)NC3=O)NC1=O)CCCN2C(C)=O (stereo partly drawn) [I-517, Ac-PL3-Asp-Ile-B5-Asp-Glu-Ala-Ala-Phe-Asn-S8-3Thi-BztA-His-NH2]
2.08	> 20			19			9.7	50 (≈ 96.1 µg/mL)			CC(=O)N1CCC[C@]12CC=CCCCC1(CCCC=CCCCOC(=O)N3CC[C@@](C(=O)N[C@@H](Cc4ccsc4)C(=O)N[C@@H](Cc4cccc5ccccc45)C(=O)N[C@@H](Cc4c[nH]cn4)C(N)=O)(C3)NC(=O)[C@H](CC(N)=O)NC(=O)[C@H](Cc3ccccc3)NC(=O)[C@H](C)NC(=O)[C@H](C)NC(=O)[C@H](CC(=O)O)NC(=O)[C@H](CC(=O)O)NC1=O)NC(=O)[C@H](CC(C)(C)C)NC(=O)[C@H](CC(=O)O)NC2=O (stereo partly drawn) [I-789, Ac-PL3-Asp-Npg-B5-Asp-Asp-Ala-Ala-Phe-Asn-PyrS2-3Thi-1NapA-His-NH2]
						5	32.7	40 (≈ 77.1 µg/mL)	2.073		CC(=O)N1CCC[C@]12CC=CCCCC1(CCCC=CCCCOC(=O)N3CC[C@@](C(=O)N[C@@H](Cc4ccsc4)C(=O)N[C@@H](Cc4csc5ccccc45)C(=O)N[C@@H](Cc4c[nH]cn4)C(N)=O)(C3)NC(=O)[C@H](CC(N)=O)NC(=O)[C@H](Cc3ccccc3)NC(=O)[C@H](C)NC(=O)[C@H](C)NC(=O)[C@H](CC(=O)O)NC(=O)[C@H](CC(=O)O)NC1=O)NC(=O)[C@H](CC(C)(C)C)NC(=O)[C@H](CC(=O)O)NC2=O (stereo partly drawn) [I-694, Ac-PL3-Asp-Npg-B5-Asp-Asp-Ala-Ala-Phe-Asn-PyrS2-3Thi-BztA-His-NH2]
2.08				8	> 20			50 (≈ 98.3 µg/mL)			CC(=O)N1CCC[C@]12CC=CCCCC1(CCCC=CCCCOC(=O)N3CC[C@@](C(=O)N[C@@H](Cc4ccccc4Cl)C(=O)N[C@@H](Cc4csc5ccccc45)C(=O)N[C@@H](CCC(N)=O)C(N)=O)(C3)NC(=O)[C@H](CC(N)=O)NC(=O)[C@H](Cc3ccccc3)NC(=O)[C@H](C)NC(=O)[C@H](C)NC(=O)[C@H](CC(=O)O)NC(=O)[C@H](CC(=O)O)NC1=O)NC(=O)[C@H](Cc1ccccc1)NC(=O)[C@H](CC(=O)O)NC2=O (stereo partly drawn) [I-1041, Ac-PL3-Asp-Phe-B5-Asp-Asp-Ala-Ala-Phe-Asn-PyrS2-2C1F-BztA-Gln-NH2]
2.34	4.4			5				10 (≈ 19.6 µg/mL)			CC(=O)N1CCC[C@]12CC=CCCCC1(CCCC=CCCCOC(=O)N3CC[C@@](C(=O)N[C@@H](Cc4ccsc4)C(=O)N[C@@H](Cc4csc5ccccc45)C(=O)N[C@@H](Cc4c[nH]cn4)C(N)=O)(C3)NC(=O)[C@H](Cc3ccccc3)NC(=O)[C@H](Cc3ccccc3)NC(=O)[C@H](C)NC(=O)[C@H](C)NC(=O)[C@H](CC(=O)O)NC(=O)[C@H](CC(=O)O)NC1=O)NC(=O)[C@H](CC(C)(C)C)NC(=O)[C@H](CC(=O)O)NC2=O (stereo partly drawn) [I-808, Ac-PL3-Asp-Npg-B5-Asp-Asp-Ala-Ala-Phe-Phe-PyrS2-3Thi-BztA-His-NH2]
2.22			41 (≈ 78.6 µg/mL)	11	16.9						CC(=O)N1CCC[C@]12CC=CCCCC1(CCCC=CCCCOC(=O)N3CC[C@@](C(=O)N[C@@H](Cc4ccsc4)C(=O)N[C@@H](Cc4csc5ccccc45)C(=O)N[C@@H](CCC(N)=O)C(N)=O)(C3)NC(=O)[C@H](CC(N)=O)NC(=O)[C@H](Cc3ccccc3)NC(=O)[C@H](C)NC(=O)[C@H](C)NC(=O)[C@H](CC(N)=O)NC(=O)[C@H](CC(=O)O)NC1=O)NC(=O)[C@H](CC(C)(C)C)NC(=O)[C@H](CC(=O)O)NC2=O (stereo partly drawn) [I-836, Ac-PL3-Asp-Npg-B5-Asp-Asn-Ala-Ala-Phe-Asn-PyrS2-3Thi-BztA-Gln-NH2]
					6.7	19		37 (≈ 69.9 µg/mL)	2.44	19	CC(=O)N1CCC[C@]12CC=CCCCC1(CCCC=CCCCCCC[C@@](C)(C(=O)N[C@@H](Cc3ccsc3)C(=O)N[C@@H](Cc3csc4ccccc34)C(=O)N[C@@H](CCC(N)=O)C(N)=O)NC(=O)[C@H](CC(N)=O)NC(=O)[C@H](Cc3ccccc3)NC(=O)[C@H](C)NC(=O)[C@H](C)NC(=O)[C@H](CCC(=O)O)NC(=O)[C@H](CC(=O)O)NC1=O)NC(=O)[C@H](CC(C)(C)C)NC(=O)[C@H](CC(=O)O)NC2=O (stereo partly drawn) [I-683, Ac-PL3-Asp-Npg-B5-Asp-Glu-Ala-Ala-Phe-Asn-S8-3Thi-BztA-Gln-NH2]
2.49	11.1		44 (≈ 95.6 µg/mL)	33							CCCCCCCC(=O)NCCCC[C@H](NC(=O)[C@H](CCC(N)=O)NC(=O)[C@H](Cc1csc2ccccc12)NC(=O)[C@H](Cc1ccsc1)NC(=O)[C@]12CCN(C1)C(=O)OCCCC=CCCCC1(CCCC=CC[C@]3(CCCN3C(C)=O)C(=O)N[C@@H](CC(=O)O)C(=O)N[C@@H](CC(C)(C)C)C(=O)N1)C(=O)N[C@@H](CC(=O)O)C(=O)N[C@@H](CC(=O)O)C(=O)N[C@@H](C)C(=O)N[C@@H](C)C(=O)N[C@@H](Cc1ccccc1)C(=O)N[C@@H](CC(N)=O)C(=O)N2)C(N)=O (stereo partly drawn) [I-918, Ac-PL3-Asp-Npg-B5-Asp-Asp-Ala-Ala-Phe-Asn-PyrS2-3Thi-BztA-Gln-[Oct]Lys-NH2]
